Results reported in ChEMBL document CHEMBL3882724 (2013).

Molecular target: T1, CYP21 (steroid 21-hydroxylase) (Homo sapiens, UniProt P08686)
T1 sequence (P08686 whole entry): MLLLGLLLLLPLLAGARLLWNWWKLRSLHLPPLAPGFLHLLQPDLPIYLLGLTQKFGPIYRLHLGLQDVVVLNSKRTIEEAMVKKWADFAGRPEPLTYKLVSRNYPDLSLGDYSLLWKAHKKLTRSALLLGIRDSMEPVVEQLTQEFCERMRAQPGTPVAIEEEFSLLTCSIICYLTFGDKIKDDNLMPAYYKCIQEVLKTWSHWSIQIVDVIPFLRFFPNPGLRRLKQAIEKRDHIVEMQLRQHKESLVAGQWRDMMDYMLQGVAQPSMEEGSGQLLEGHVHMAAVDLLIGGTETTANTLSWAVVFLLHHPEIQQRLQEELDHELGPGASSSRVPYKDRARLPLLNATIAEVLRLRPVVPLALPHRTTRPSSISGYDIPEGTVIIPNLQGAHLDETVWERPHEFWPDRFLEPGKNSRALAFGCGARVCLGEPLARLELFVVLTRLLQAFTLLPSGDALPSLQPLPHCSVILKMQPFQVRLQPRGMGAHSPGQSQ
Test: Inhibition of human CYP21 transfected in HEK293 cells assessed as decrease in conversion of progesterone to 11-deoxycorticosterone preincubated for 5 hrs followed by progesterone addition measured after 20 hrs by ELISA
Type: cell-based
Set-up: concentration or dose not given beside the values
Details: HEK293 cells transfected with human CYP21, probe progesterone

| SMILES | inhibition at 20 h [%] |
| --- | --- |
| CC1C[C@H]2C3=CC=C(c4cncc(C(F)F)c4)[C@@]3(C)CC[C@@H]2[C@@]2(C)CCC(=O)C=C12 (stereo partly specified) | < 10 |
| C[C@]12CC[C@H](O)CC1=CC[C@@H]1[C@@H]2CC[C@]2(C)C(c3cncc(NS(C)(=O)=O)c3)=CC[C@@H]12 | < 10 |
| CC(=O)N(C)[C@H]1CC[C@@]2(C)C(CC[C@@H]3[C@@H]2CC[C@]2(C)C(c4cncc(C)c4)=CC[C@@H]32)C1 (stereo partly specified) | 10 to 50 |
| CC(C)C(=O)O[C@H]1CC[C@@]2(C)C(=CC[C@H]3C4=CC=C(c5cccnc5)[C@@]4(C)CC[C@@H]32)C1 | 10 to 50 |
| CC1(C)C2=CC[C@@H]3[C@H](CC[C@]4(C)C(c5cccnc5)=CC[C@@H]34)[C@@]2(C)CC/C1=N\O | < 10 |
| CC1C(O)CC[C@@]2(C)C1CC[C@@H]1[C@@H]2CC[C@]2(C)C(c3cncc(C(F)F)c3)=CC[C@@H]12 (stereo partly specified) | < 10 |
| CC1CC2[C@H](CC[C@]3(C)C(c4cccnc4)=CC[C@@H]23)[C@@]2(C)CCC(C)(O)C=C12 (stereo partly specified) | 10 to 50 |
| CC1C(O)CC[C@@]2(C)C1CC[C@@H]1[C@@H]2CC[C@]2(C)C(c3cncc(F)c3)=CC[C@@H]12 (stereo partly specified) | < 10 |
| CC1C[C@@H]2[C@H](CC[C@]3(C)C(c4cncc(C(F)F)c4)=CC[C@@H]23)[C@@]2(C)C=CC(=O)C=C12 (stereo partly specified) | 10 to 50 |
| CC1C[C@H]2C3=CC=C(c4ccc(F)nc4)[C@@]3(C)CC[C@@H]2[C@@]2(C)CCC(=O)C=C12 (stereo partly specified) | 10 to 50 |
| C[C@]12CC(F)(F)CC1CC[C@@H]1[C@@H]2CC[C@]2(C)C(c3cccnc3)=CC[C@@H]12 (stereo partly specified) | 10 to 50 |
| C[C@]1(O)CC[C@@]2(C)C(=CC[C@@H]3[C@@H]2CC[C@]2(C)C(c4cncc(F)c4)=CC[C@@H]32)C1 | 10 to 50 |
| CCNC(=O)O[C@H]1CC[C@@]2(C)C(=CC[C@H]3C4=CC=C(c5cccnc5)[C@@]4(C)CC[C@@H]32)C1 | < 10 |
| CCc1ccncc1C1=CC=C2[C@@H]3CCC4CC(=O)NCC[C@]4(C)[C@H]3CC[C@]12C (stereo partly specified) | 10 to 50 |
| CN1CCC(C(=O)O[C@H]2CC[C@@]3(C)C(=CC[C@H]4C5=CC=C(c6cccnc6)[C@@]5(C)CC[C@@H]43)C2)CC1 | 10 to 50 |
| C[C@]12CC(O)CC1CC[C@@H]1[C@@H]2CC[C@]2(C)C(c3cncc(Cl)c3)=CC[C@@H]12 (stereo partly specified) | 10 to 50 |
| Cc1cnc(F)c(C2=CC[C@H]3[C@@H]4CC=C5C[C@@H](O)CC[C@]5(C)[C@H]4CC[C@]23C)c1 | 10 to 50 |
| C[C@H]1C2CC[C@@H]3[C@H](CC[C@]4(C)C(c5cncc(C(F)F)c5)=CC[C@@H]34)[C@@]2(C)CC[C@@H]1O (stereo partly specified) | 10 to 50 |
| CC1(O)CC2CC[C@@H]3C(CC[C@]4(C)C(c5cccnc5)=CC[C@@H]34)[C@@]2(C)C1 (single isomer, unassigned) | 10 to 50 |
| C[C@]12CCC(=O)C=C1C(c1ccccc1)C[C@@H]1[C@@H]2CC[C@]2(C)C(c3cccnc3)=CC[C@@H]12 (stereo partly specified) | < 10 |
| C[C@]12CCNC(=O)CC1CC[C@@H]1[C@@H]2CC[C@]2(C)C(c3cncc(F)c3)=CC[C@@H]12 (stereo partly specified) | 10 to 50 |

| SMILES | inhibition at 20 h [%] |
| --- | --- |
| C[C@]12CCC(=O)C=C1C(C1CC1)C[C@@H]1[C@@H]2CC[C@]2(C)C(c3cccnc3)=CC[C@@H]12 (stereo partly specified) | < 10 |
| C[C@@]1(O)CC[C@@]2(C)C(CC[C@@H]3[C@@H]2CC[C@]2(C)C(c4cncc(Cl)c4)=CC[C@@H]32)C1 (stereo partly specified) | 10 to 50 |
| CCc1ccncc1C1=CC[C@H]2[C@@H]3CC[C@H]4CC(=O)NCC[C@]4(C)[C@H]3CC[C@]12C | 10 to 50 |
| CC(C)(C)C(=O)O[C@H]1CC[C@@]2(C)C(=CC[C@H]3C4=CC=C(c5cccnc5)[C@@]4(C)CC[C@@H]32)C1 | 10 to 50 |
| C[C@]12CCNC(=O)CC1CCC1C2CC[C@]2(C)C(c3cncc(C(F)F)c3)=CCC12 (stereo partly specified) | ≥ 50 |
| CC1C[C@@H]2[C@H](CC[C@]3(C)C(c4cccnc4)=CC[C@@H]23)[C@@]2(C)C=C/C(=N\O)C=C12 (stereo partly specified) | 10 to 50 |
| Cc1ccncc1C1=CC=C2[C@@H]3CC[C@H]4CNC(=O)CC[C@]4(C)[C@H]3CC[C@]12C | 10 to 50 |
| C[C@]12CCC(=O)C=C1CC[C@@H]1[C@@H]2CC[C@]2(C)C(c3cncc(C(F)F)c3)=CC[C@@H]12 | 10 to 50 |
| C[C@@]1(O)CC[C@@]2(C)C(CC[C@@H]3[C@@H]2CC[C@]2(C)C(c4cccnc4)=CC[C@@H]32)C1 (stereo partly specified) | < 10 |
| C[C@]12CC[C@@H](NC(=O)c3nccs3)CC1=CC[C@@H]1[C@@H]2CC[C@]2(C)C(n3ccnc3)=CC[C@@H]12 | 10 to 50 |
| Cc1ccncc1C1=CC[C@H]2[C@@H]3CC[C@H]4CNC(=O)CC[C@]4(C)[C@H]3CC[C@]12C | 10 to 50 |
| CC(=O)Nc1cncc(C2=CC[C@H]3[C@@H]4CC=C5C[C@@H](O)CC[C@]5(C)[C@H]4CC[C@]23C)c1 | < 10 |
| C[C@]12CC[C@H]3[C@@H](CCC45CC4NC(=O)CC[C@]35C)[C@@H]1CC=C2c1cccnc1 (stereo partly specified) | < 10 |
| C[C@]1(O)CC[C@@]2(C)C(=CC[C@@H]3[C@@H]2CC[C@]2(C)C(c4cccnc4)=CC[C@@H]32)C1 | ≥ 50 |
| C[C@]12CC[C@H]3[C@@H](CC(c4ccccc4)C4=CC(=O)CC[C@@]43C)C1=CC=C2c1cccnc1 (stereo partly specified) | 10 to 50 |
| C[C@@]1(O)CC[C@@]2(C)C(CCC3C4=CC=C(c5cccnc5)[C@@]4(C)CC[C@@H]32)C1 (single isomer, unassigned) | < 10 |
| Cc1ccncc1C1=CC=C2C3CCC4C[C@@H](O)CC[C@]4(C)C3CC[C@]12C (stereo partly specified) | 10 to 50 |
| CC1(O)C=C2CC[C@@H]3[C@H](CC[C@]4(C)C(c5cccnc5)=CC[C@@H]34)[C@@]2(C)CC1 (stereo partly specified) | 10 to 50 |
| C[C@]12CC[C@@H](N=[N+]=[N-])CC1CC[C@@H]1[C@@H]2CC[C@]2(C)C(c3cccnc3)=CC[C@@H]12 (stereo partly specified) | 10 to 50 |
| C[C@]12CC[C@H]3[C@@H](CC=C4C[C@@H](OC(=O)Nc5cccnc5)CC[C@@]43C)C1=CC=C2c1cccnc1 | 10 to 50 |
| Cc1ccccc1C(=O)O[C@H]1CC[C@@]2(C)C(=CC[C@H]3C4=CC=C(c5cccnc5)[C@@]4(C)CC[C@@H]32)C1 | 10 to 50 |

| SMILES | inhibition at 20 h [%] |
| --- | --- |
| CCOc1cncc(C2=CC[C@H]3[C@@H]4CC[C@H]5C[C@@H](OC)CC[C@]5(C)[C@H]4CC[C@]23C)c1 | 10 to 50 |
| CC1C(=O)CC[C@@]2(C)C1CC[C@@H]1[C@@H]2CC[C@]2(C)C(c3cccnc3)=CC[C@@H]12 (stereo partly specified) | 10 to 50 |
| COc1cncc(C2=CC[C@H]3[C@@H]4CC[C@H]5C[C@@H](OC)CC[C@]5(C)[C@H]4CC[C@]23C)c1 | 10 to 50 |
| C[C@]12CC[C@@H](NC(=O)c3nccs3)CC1=CC[C@@H]1[C@@H]2CC[C@]2(C)C(c3cccnc3)=CC[C@@H]12 | 10 to 50 |
| C[C@]12CC[C@@H](NS(=O)(=O)C3CC3)CC1=CC[C@@H]1[C@@H]2CC[C@]2(C)C(c3cccnc3)=CC[C@@H]12 | 10 to 50 |
| C[C@]12CC[C@H]3[C@@H](CC4OC45C[C@@H](O)CC[C@]35C)C1=CC=C2c1cccnc1 (stereo partly specified) | ≥ 50 |
| CCNC(=O)NC1CC[C@@]2(C)C(CC[C@@H]3[C@@H]2CC[C@]2(C)C(c4cccnc4)=CC[C@@H]32)C1C (stereo partly specified) | < 10 |
| CC(C)(C)C(=O)N[C@@H]1CC[C@@]2(C)C(CC[C@@H]3[C@@H]2CC[C@]2(C)C(c4cccnc4)=CC[C@@H]32)C1 (stereo partly specified) | 10 to 50 |
| CC(CO)(CO)C(=O)O[C@H]1CC[C@@]2(C)C(=CC[C@H]3C4=CC=C(c5cccnc5)[C@@]4(C)CC[C@@H]32)C1 | < 10 |
| CC[C@@]1(O)CC[C@@]2(C)C(CC[C@@H]3[C@@H]2CC[C@]2(C)C(c4cccnc4)=CC[C@@H]32)C1 (stereo partly specified) | < 10 |
| Cc1cncc(C2=CC=C3[C@@H]4CCC5CNC(=O)CC[C@]5(C)[C@H]4CC[C@]23C)c1 (stereo partly specified) | 10 to 50 |
| C[C@]12CC[C@H]3[C@@H](CCC4=CC(=O)CC[C@@]43C)C1=CC=C2c1ccc(F)nc1 | 10 to 50 |
| COC(=O)c1cncn1C1=CC[C@H]2[C@@H]3CC=C4C[C@@H](O)CC[C@]4(C)[C@H]3CC[C@]12C | 10 to 50 |
| CCc1cncc(C2=CC[C@H]3[C@@H]4CC[C@H]5C[C@@H](OC)CC[C@]5(C)[C@H]4CC[C@]23C)c1 | 10 to 50 |
| C[C@]12CCC(O)(CCCO)CC1CC[C@@H]1[C@@H]2CC[C@]2(C)C(c3cccnc3)=CC[C@@H]12 (stereo partly specified) | 10 to 50 |
| CO[C@H]1CC[C@@]2(C)C(=CC[C@@H]3[C@@H]2CC[C@]2(C)C(n4ccnc4)=CC[C@@H]32)C1 | 10 to 50 |
| C[C@]12CC[C@@](O)(C3CC3)CC1CC[C@@H]1[C@@H]2CC[C@]2(C)C(c3cccnc3)=CC[C@@H]12 (stereo partly specified) | 10 to 50 |
| CC1C[C@@]2(C)C(CC[C@@H]3[C@@H]2CC[C@]2(C)C(c4cccnc4)=CC[C@@H]32)C(C)C1O (stereo partly specified) | 10 to 50 |
| C#CC1(O)CC[C@@]2(C)C(CC[C@@H]3[C@@H]2CC[C@]2(C)C(c4cccnc4)=CC[C@@H]32)C1 (single isomer, unassigned) | 10 to 50 |
